CC(C)C(=O)OCC(=O)[C@@]12O[C@H](C3CCCCC3)O[C@@H]1C[C@H]1[C@@H]3CCC4=CC(=O)C=C[C@]4(C)[C@H]3[C@@H](O)C[C@@]12C
solubility (mole fraction)
Conditions | in acetonitrile | in ethanol | in ethyl acetate | in isopropanol | in n-butanol | in n-propanol | in toluene
278.15 K | 0.00485 | 0.00231 | 0.0515 | 0.00814 | 0.0669 | 0.0141 | 0.0297
280.65 K | 0.00528 | 0.00276 | 0.0559 | 0.00948 | 0.0689 | 0.0164 | 0.0318
283.15 K | 0.00576 | 0.00333 | 0.0604 | 0.0111 | 0.0716 | 0.0191 | 0.0342
285.65 K | 0.00626 | 0.00398 | 0.0653 | 0.013 | 0.0743 | 0.0222 | 0.0367
288.15 K | 0.00687 | 0.00478 | 0.0704 | 0.0151 | 0.0779 | 0.025 | 0.0392
290.65 K | 0.00739 | 0.00568 | 0.076 | 0.0175 | 0.0815 | 0.029 | 0.0421
293.15 K | 0.008 | 0.00674 | 0.0818 | 0.0203 | 0.0852 | 0.0334 | 0.0449
295.65 K | 0.00865 | 0.00796 | 0.088 | 0.0234 | 0.0898 | 0.0385 | 0.0479
298.15 K | 0.00937 | 0.00937 | 0.0945 | 0.0271 | 0.0942 | 0.0437 | 0.0511
300.65 K | 0.0101 | 0.011 | 0.101 | 0.0312 | 0.0993 | 0.05 | 0.0544
303.15 K | 0.0109 | 0.0129 | 0.109 | 0.0359 | 0.105 | 0.0567 | 0.0579
305.65 K | 0.0117 | 0.0151 | 0.116 | 0.0411 | 0.111 | 0.0644 | 0.0616
308.15 K | 0.0126 | 0.0176 | 0.124 | 0.047 | 0.118 | 0.0728 | 0.0654
310.65 K | 0.0135 | 0.0204 | 0.133 | 0.0536 | 0.124 | 0.0825 | 0.0694
313.15 K | 0.0143 | 0.0237 | 0.141 | 0.061 | 0.131 | 0.0925 | 0.0735

Source: BigSolDB 2.1
